Measurements from patent US20230073777A1, “CYCLIC-AMP RESPONSE ELEMENT BINDING PROTEIN (CBP) AND/OR ADENOVIRAL E1A BINDING PROTEIN OF 300 KDA (P300) DEGRADATION COMPOUNDS AND METHODS OF USE” (CULLGEN (SHANGHAI), INC., priority 2019, published 2023).
“Also recorded” adds a separate entry of the source. Values belong to the molecule of their own block, whether it stands above or below them.

Experiments:
NCI-H1703 = assay: Cell viability assay, NCI-H1703; type: cell-based; details: Homo sapiens, NCI-H1703, Non-small cell lung cancer
Experimental: (§1) Cells were seeded at a density of 5000 cells per well in 96-well assay plates and treated with test compounds following a 12-point 3-fold serial dilution. Three days later, cell viability was determined using the CellTiter-Glo assay kit according to the manufacturer's instructions. The dose-response curves were determined and IC50 values were calculated using the GraphPad Prism software following a nonlinear regression (least squares fit) method.
(§2) The IC50 value of each compound was determined as described in FIG. 4 and calculated using the GraphPad Prism 5.0 software.

SU-DHL-1 = assay: Cell viability assay, SU-DHL-1; type: cell-based; details: Homo sapiens, SU-DHL-1, Diffuse large B-cell lymphoma
Experimental: as §1, §2

Pfeiffer = assay: Cell viability assay, Pfeiffer; type: cell-based; details: Homo sapiens, Diffuse large B-cell lymphoma
Experimental: as §1, §2

NCI-H520 = assay: Cell viability assay, NCI-H520; type: cell-based; details: Homo sapiens, NCI-H520, Non-small cell lung cancer
Experimental: as §1, §2

MOLM-13 = assay: Cell viability assay, MOLM-13; type: cell-based; details: Homo sapiens, MOLM-13, Acute monocytic leukemia
Experimental: as §1, §2

NOMO-1 = assay: Cell viability assay, NOMO-1; type: cell-based; details: Homo sapiens, NOMO-1, Acute monocytic leukemia
Experimental: as §1, §2

Karpas-422 = assay: Cell viability assay, Karpas-422; type: cell-based; details: Homo sapiens, Karpas-422, Diffuse large B-cell lymphoma
Experimental: as §1, §2

RPMI-8226 = assay: Cell viability assay, RPMI-8226; type: cell-based; details: Homo sapiens, RPMI-8226, Multiple myeloma
Experimental: as §1, §2

VCaP = assay: Cell viability assay, VCaP; type: cell-based; details: Homo sapiens, Prostate carcinoma
Experimental: as §1, §2

MEG-01 = assay: Cell viability assay, MEG-01; type: cell-based; details: Homo sapiens, MEG-01, Chronic myeloid leukemia
Experimental: as §1, §2

MM.1R = assay: Cell viability assay, MM.1R; type: cell-based; details: Multiple Myeloma
Experimental: as §1, §2

NCI-H929 = assay: Cell viability assay, NCI-H929; type: cell-based; details: Homo sapiens, NCI-H929, Multiple Myeloma
Experimental: as §1, §2

HL-60 = assay: Cell viability assay, HL-60; type: cell-based; details: Homo sapiens, HL-60, Acute myeloid leukemia
Experimental: as §1, §2

MCF-7 = assay: Cell viability assay, MCF-7; type: cell-based; details: Homo sapiens, MCF7, MCF-7, breast carcinoma
Experimental: as §1, §2

SK-BR-3 = assay: Cell viability assay, SK-BR-3; type: cell-based; details: Homo sapiens, SK-BR-3, breast carcinoma
Experimental: as §1, §2

LK-2 = assay: Cell viability assay, LK-2; type: cell-based; details: Homo sapiens, LK-2, Non-small cell lung cancer
Experimental: as §1, §2

MV4; 11 = assay: Cell viability assay, MV4; 11; type: cell-based; details: Homo sapiens, 11, Acute monocytic leukemia
Experimental: as §1, §2

22Rv1 = assay: Cell viability assay, 22Rv1; type: cell-based; details: Homo sapiens, 22Rv1, Prostate carcinoma
Experimental: as §1, §2

WSU-DLCL2 = assay: Cell viability assay, WSU-DLCL2; type: cell-based; details: Homo sapiens, WSUDLCL2, WSU-DLCL2, Diffuse large B-cell lymphoma
Experimental: as §1, §2

HEL = assay: Cell viability assay, HEL; type: cell-based; details: Homo sapiens, Erythroleukemia
Experimental: as §1, §2

MM.1S = assay: Cell viability assay, MM.1S; type: cell-based; details: Homo sapiens, MM1.S, Multiple Myeloma
Experimental: as §1, §2

LNCaP cells = assay: LNCaP cell viability assay (CellTiter-Glo); type: cell-based; details: Homo sapiens
Method in brief: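 Three-day treatment of LNCaP cells (5000 per well) across a 12-point, 3-fold dilution series starting at 10 μM. ATP luminescence (CellTiter-Glo) relative to untreated controls gave dose-response curves fitted nonlinearly for IC50.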

Kasumi-1 = assay: Cell viability assay, Kasumi-1; type: cell-based; details: Homo sapiens, Kasumi-1, Acute myeloid leukemia
Experimental: as §1, §2

AMO-1 = assay: Cell viability assay, AMO-1; type: cell-based; details: Homo sapiens, AMO1, AMO-1, Multiple Myeloma
Experimental: as §1, §2

L-363 = assay: Cell viability assay, L-363; type: cell-based; details: Homo sapiens, L-363, Multiple myeloma
Experimental: as §1, §2

P300 [1] = biological target: T1, P300 (Homo sapiens, UniProt Q09472); assay: Pharmacodynamic study, P300 in 22RV1 subcutaneous xenograft tumors; type: in vivo, Athymic nude mice; design: from tissue; host or cells: 22RV1 subcutaneous xenograft tumours in athymic nude mice; details: single dose 40 mg/kg, i.p. or p.o., six hours after administration (FIG. 9)
T1 sequence (Q09472 whole entry): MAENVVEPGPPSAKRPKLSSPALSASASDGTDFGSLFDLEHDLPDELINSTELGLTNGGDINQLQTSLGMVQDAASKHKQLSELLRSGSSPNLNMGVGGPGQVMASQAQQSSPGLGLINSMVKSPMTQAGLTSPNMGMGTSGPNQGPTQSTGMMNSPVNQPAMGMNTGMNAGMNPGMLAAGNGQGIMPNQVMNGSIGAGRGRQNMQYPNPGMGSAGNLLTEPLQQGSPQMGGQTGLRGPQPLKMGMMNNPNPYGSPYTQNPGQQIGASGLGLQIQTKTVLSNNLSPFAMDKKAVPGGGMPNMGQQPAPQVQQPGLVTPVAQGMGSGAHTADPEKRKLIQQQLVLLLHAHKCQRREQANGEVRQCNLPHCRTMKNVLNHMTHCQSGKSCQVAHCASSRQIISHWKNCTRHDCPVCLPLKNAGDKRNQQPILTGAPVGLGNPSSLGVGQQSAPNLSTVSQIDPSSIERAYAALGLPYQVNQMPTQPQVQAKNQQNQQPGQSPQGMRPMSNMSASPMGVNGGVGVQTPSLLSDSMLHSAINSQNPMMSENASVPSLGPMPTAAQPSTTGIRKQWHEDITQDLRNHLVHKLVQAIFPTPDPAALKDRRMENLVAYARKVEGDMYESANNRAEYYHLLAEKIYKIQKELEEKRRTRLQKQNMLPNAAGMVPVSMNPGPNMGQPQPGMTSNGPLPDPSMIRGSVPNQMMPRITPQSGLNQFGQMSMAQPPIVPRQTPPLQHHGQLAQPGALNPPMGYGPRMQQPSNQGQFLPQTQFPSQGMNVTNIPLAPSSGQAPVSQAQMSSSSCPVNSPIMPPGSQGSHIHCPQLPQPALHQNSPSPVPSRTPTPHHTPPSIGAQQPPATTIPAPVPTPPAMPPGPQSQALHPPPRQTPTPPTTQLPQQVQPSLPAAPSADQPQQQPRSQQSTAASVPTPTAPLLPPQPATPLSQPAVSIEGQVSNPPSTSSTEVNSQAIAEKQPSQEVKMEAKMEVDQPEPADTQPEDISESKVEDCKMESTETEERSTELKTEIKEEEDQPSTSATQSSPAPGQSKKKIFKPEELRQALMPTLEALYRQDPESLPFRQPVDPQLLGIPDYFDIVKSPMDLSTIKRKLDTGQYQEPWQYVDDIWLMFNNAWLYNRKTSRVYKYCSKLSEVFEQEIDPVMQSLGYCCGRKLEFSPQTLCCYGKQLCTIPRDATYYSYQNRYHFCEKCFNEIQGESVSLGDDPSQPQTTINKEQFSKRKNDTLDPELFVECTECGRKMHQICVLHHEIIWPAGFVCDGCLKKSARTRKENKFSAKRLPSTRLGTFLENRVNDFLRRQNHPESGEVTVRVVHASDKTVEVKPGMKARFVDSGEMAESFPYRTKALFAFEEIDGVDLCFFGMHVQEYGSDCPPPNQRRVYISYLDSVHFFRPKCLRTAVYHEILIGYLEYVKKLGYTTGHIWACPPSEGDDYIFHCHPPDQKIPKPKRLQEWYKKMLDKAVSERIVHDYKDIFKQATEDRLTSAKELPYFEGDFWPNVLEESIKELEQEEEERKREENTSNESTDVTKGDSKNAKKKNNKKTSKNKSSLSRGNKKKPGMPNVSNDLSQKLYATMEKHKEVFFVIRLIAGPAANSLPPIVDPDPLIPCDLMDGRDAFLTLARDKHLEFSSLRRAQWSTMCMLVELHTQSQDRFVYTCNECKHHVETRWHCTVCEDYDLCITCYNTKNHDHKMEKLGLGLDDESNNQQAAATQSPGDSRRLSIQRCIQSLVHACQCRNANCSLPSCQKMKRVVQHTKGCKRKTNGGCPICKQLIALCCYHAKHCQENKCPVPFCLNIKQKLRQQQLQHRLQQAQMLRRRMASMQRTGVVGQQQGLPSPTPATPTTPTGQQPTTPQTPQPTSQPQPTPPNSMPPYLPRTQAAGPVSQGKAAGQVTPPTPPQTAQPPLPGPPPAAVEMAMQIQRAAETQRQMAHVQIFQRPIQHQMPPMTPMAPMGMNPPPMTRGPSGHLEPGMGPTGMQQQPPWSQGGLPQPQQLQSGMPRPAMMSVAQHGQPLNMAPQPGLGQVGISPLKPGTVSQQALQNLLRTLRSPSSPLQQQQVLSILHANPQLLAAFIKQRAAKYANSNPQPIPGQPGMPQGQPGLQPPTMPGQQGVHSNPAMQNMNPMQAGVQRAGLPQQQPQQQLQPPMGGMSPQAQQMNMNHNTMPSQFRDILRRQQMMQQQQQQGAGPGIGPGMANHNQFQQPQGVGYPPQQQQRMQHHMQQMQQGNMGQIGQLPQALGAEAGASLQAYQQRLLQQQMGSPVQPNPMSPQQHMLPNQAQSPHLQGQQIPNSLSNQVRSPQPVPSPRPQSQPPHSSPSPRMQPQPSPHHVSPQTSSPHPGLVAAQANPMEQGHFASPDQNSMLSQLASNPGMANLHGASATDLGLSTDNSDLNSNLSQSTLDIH
Experimental: (§3) In addition to cultured cells, athymic nude mice bearing 22RV1 subcutaneous xenograft tumors at the right flank were intraperitoneally or orally treated with 40 mg/kg bivalent compounds. Six hours after drug administration, animals were sacrificed for immunoblotting of P300 and CBP in homogenized xenograft tumor masses. […] Moreover, ICR mice were orally treated with 40 mg/kg bivalent compounds. Six hours after drug administration, animals were sacrificed for immunoblotting of CBP in homogenized lung tissues.
(§4) Athymic nude mice bearing 22RV1 subcutaneous xenograft tumors at the right flank were intraperitoneally or orally treated with selected bivalent compounds at 40 mg/kg. Six hours after drug administration, animals were sacrificed, and xenograft tumors were collected for immunoblotting of P300 and CBP.
(§5) All animal experiments were performed under protocols approved by the Institutional Animal Care and Use Committee (IACUC) of Cullgen. Athymic nude mice (male, 5-weeks old) received 5 million 22RV1 cells subcutaneously inoculated at the right flank site. Twenty days following inoculation, tumors were approximately 500 mm^3 in size. Tumor-bearing mice were treated intraperitoneally or via oral gavage with vehicle or bivalent compounds at indicated doses. 6 hours after drug administration, animals were sacrificed, tumors were resected. Small chunks of tumors were homogenized for immunoblotting of P300/CBP and other proteins as indicated. Alternatively, ICR mice (male, 5-weeks old) were treated via oral gavage with vehicle or bivalent compounds at indicated doses. 6 hours after drug administration, animals were sacrificed, lung tissues were resected. Small chunks of lung tissues were homogenized for immunoblotting of CBP and other proteins as indicated.

P300 [2] = biological target: T1, P300; assay: Immunoblotting of P300 protein levels in LNCaP or 22RV1 cells; type: cell-based; design: LNCaP or 22RV1 cells that express CBP/P300 proteins were treated with GNE-781 or the bivalent compounds; endogenous in cells; host or cells: LNCaP (clone FGC) or 22RV1 cells; details: for inhibition at 0.01 µM: percentage of inhibition of p300 at 10 nM (Table 3), read-out: Degradation (10 nM)
Method in brief: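 P300/CBP levels quantified by chemiluminescent immunoblot band densitometry, normalized against tubulin or vinculin loading controls. Lysates came from LNCaP or 22RV1 cells exposed to compounds or DMSO vehicle for indicated times.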

CBP = biological target: T2, CBP (Homo sapiens, UniProt Q92793); assay: Pharmacodynamic study, CBP in 22RV1 subcutaneous xenograft tumors; type: in vivo, Athymic nude mice; details: single dose 40 mg/kg, i.p. or p.o., six hours after administration (FIG. 9)
T2 construct: from tissue; host or cells: 22RV1 subcutaneous xenograft tumours in athymic nude mice
T2 sequence (Q92793 whole entry): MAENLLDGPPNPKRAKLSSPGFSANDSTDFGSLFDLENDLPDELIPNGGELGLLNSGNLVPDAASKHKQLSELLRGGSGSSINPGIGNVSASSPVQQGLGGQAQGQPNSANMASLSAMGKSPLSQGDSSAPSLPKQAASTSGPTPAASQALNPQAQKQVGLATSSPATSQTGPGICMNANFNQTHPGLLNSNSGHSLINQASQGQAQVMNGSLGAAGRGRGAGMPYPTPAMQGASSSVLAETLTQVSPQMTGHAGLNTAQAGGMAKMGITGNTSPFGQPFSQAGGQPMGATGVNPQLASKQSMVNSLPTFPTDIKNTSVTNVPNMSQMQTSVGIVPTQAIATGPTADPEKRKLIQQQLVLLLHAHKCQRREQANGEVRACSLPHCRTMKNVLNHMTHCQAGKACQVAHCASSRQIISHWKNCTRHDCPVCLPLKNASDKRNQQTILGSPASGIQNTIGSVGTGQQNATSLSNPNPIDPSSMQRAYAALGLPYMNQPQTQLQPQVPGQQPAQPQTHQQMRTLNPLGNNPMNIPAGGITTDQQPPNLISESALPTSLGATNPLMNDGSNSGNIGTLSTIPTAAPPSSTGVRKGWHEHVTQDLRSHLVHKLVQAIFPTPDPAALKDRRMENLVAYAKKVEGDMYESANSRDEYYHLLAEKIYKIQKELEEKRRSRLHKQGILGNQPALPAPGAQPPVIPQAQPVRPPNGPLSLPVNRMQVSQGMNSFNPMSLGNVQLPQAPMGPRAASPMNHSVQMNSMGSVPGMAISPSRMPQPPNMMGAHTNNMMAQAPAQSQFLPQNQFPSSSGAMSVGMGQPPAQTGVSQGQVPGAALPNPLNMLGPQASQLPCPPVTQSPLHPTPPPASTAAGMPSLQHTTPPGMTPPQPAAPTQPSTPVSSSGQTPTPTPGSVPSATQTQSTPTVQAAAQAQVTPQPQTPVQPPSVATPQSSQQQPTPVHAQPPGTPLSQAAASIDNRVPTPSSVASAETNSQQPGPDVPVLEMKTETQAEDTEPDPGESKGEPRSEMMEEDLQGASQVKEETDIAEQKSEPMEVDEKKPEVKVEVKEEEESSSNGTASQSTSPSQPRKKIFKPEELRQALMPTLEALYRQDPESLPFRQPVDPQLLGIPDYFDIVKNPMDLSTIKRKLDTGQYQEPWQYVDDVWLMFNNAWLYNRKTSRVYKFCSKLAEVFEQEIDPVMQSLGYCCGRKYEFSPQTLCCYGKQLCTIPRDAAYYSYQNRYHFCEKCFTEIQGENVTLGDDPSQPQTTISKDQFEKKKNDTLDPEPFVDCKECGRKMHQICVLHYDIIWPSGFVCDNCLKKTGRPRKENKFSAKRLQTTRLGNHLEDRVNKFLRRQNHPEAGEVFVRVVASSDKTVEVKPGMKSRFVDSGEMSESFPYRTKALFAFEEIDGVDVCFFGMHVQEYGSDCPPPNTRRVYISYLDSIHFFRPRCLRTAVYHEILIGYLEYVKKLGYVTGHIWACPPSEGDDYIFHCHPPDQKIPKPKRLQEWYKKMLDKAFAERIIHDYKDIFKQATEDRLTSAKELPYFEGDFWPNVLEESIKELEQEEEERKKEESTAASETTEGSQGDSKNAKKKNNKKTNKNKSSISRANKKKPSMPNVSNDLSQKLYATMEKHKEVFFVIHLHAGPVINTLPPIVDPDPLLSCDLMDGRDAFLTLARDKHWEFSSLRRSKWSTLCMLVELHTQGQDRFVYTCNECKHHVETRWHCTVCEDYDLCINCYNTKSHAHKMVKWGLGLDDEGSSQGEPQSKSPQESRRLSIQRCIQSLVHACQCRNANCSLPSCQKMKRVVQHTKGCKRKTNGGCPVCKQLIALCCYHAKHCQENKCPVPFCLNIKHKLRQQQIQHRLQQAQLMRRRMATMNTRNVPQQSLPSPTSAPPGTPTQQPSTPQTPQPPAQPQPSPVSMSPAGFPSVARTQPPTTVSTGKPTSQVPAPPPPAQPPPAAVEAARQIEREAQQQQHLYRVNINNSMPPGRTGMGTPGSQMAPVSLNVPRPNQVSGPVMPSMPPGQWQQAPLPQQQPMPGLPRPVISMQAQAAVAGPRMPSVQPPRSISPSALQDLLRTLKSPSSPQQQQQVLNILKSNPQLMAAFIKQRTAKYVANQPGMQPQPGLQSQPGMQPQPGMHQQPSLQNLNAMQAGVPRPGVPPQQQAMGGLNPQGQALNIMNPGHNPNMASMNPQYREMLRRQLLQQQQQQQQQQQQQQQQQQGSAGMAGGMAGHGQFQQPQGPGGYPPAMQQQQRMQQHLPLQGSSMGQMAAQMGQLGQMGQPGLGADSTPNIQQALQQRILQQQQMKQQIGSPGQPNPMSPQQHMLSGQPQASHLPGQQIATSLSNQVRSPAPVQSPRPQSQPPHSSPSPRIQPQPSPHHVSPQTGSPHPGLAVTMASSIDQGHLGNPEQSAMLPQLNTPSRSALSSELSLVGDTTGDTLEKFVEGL
Experimental: as §3, §4, §5

P300/CBP = assay: Immunoblotting of P300/CBP protein levels in LNCaP or 22RV1 cells; type: cell-based; details: LNCaP cells, 10 nM single dose (FIG. 8)
Experimental: Specific exemplary bivalent compounds were characterized in LNCaP or 22RV1 cells. LNCaP or 22RV1 cells that express CBP/P300 proteins were treated with GNE-781 or the bivalent compounds disclosed herein (P-001 to P-174) for indicated hours. Cells were collected, lysed and subject to immunoblotting using an antibody specific to P300 or CBP proteins. Tubulin or vinculin was included as the loading control. DMSO was used as the negative control.
Cultured cells or tissue chunks were washed with cold PBS once and lysed in cold RIPA buffer supplemented with protease inhibitors and phosphatase inhibitors (Beyotime Biotechnology). The solutions were then incubated at 4° C. for 30 minutes with gentle agitation to fully lyse cells. Cell lysates were centrifuged at 13,000 rpm for 10 minutes at 4° C. and pellets were discarded. Total protein concentrations in the lysates were determined by BCA assays (Beyotime Biotechnology). Cell lysates were mixed with Laemmli loading buffer to 1× and heated at 99° C. for 5 min. Proteins were resolved on SDS-PAGE and visualized by chemiluminescence. Images were taken by a ChemiDoc MP Imaging system (Bio-Rad). Protein bands were quantitated using the accompanied software provided by Bio-Rad.

[3] = 72 h, LNCaP prostate cancer cell viability inhibition, 3 days, CellTiter-Glo (Table 3)

- inhibition at 0.01 µM (P300 [2]): 20 to 50%
- IC50 (LNCaP cells; [3]): 3.4 nM
Structure (SMILES): CC(=O)N1CCc2c(c(N3CCCc4cc(-c5cnn(C)c5)c(C(F)F)cc43)nn2C2CCN(CCc3ccc(COc4cccc5c4CN(C4CCC(=O)NC4=O)C5=O)cc3)CC2)C1 (stereo not shown) [P-173, 3-(4-((4-(2-(4-(5-acetyl-3-(7-(difluoromethyl)-6-(1-methyl-1H-pyrazol-4-yl)-3,4-dihydroquinolin-1(2H)-yl)-4,5,6,7-tetrahydro-1H-pyrazolo[4,3-c]pyridin-1-yl)piperidin-1-yl)ethyl)benzyl)oxy)-1-oxoisoindolin-2-yl)piperidine-2,6-dione]

- inhibition at 0.01 µM (P300 [2]): > 80%
- IC50 (LNCaP cells; [3]): 0.4 nM
Structure (SMILES): CC(=O)N1CCc2c(c(N3CCCc4cc(-c5cnn(C)c5)c(C(F)F)cc43)nn2C2CCN(Cc3ccc(CCOc4cccc5c4CN(C4CCC(=O)NC4=O)C5=O)cc3)CC2)C1 (stereo not shown) [P-174, 3-(4-(4-((4-(5-acetyl-3-(7-(difluoromethyl)-6-(1-methyl-1H-pyrazol-4-yl)-3,4-dihydroquinolin-1(2H)-yl)-4,5,6,7-tetrahydro-1H-pyrazolo[4,3-c]pyridin-1-yl)piperidin-1-yl)methyl)phenethoxy)-1-oxoisoindolin-2-yl)piperidine-2,6-dione]

Further lines, the molecule ahead of its results:

Structure (SMILES): CNC(=O)N1CCc2c(c(N3CCCc4cc(-c5cnn(C)c5)c(C(F)F)cc43)nn2C2CCOCC2)C1 [GNE-781, reference compound]
- IC50 (NCI-H1703): > 10000 nM
- IC50 (SU-DHL-1): > 1000 nM
- IC50 (Pfeiffer): 132 nM
- IC50 (NCI-H520): 5380 nM
- IC50 (MOLM-13): > 10000 nM
- IC50 (NOMO-1): > 10000 nM
- IC50 (Karpas-422): > 10000 nM
- IC50 (RPMI-8226): 10.3 nM
- IC50 (VCaP): 723 nM
- IC50 (MEG-01): > 10000 nM
- IC50 (MM.1R): 13.2 nM
- IC50 (NCI-H929): 15.6 nM
- IC50 (HL-60): > 10000 nM
- IC50 (MCF-7): 2390 nM
- IC50 (SK-BR-3): > 10000 nM
- IC50 (LK-2): 2710 nM
- IC50 (MV4; 11): > 10000 nM
- IC50 (22Rv1): 1680 nM
- IC50 (WSU-DLCL2): 14 nM
- IC50 (HEL): > 10000 nM
- IC50 (MM.1S): 12.8 nM
- IC50 (LNCaP cells; cell viability, LNCaP clone FGC, Prostate carcinoma (Table 4)): 4170 nM
- IC50 (Kasumi-1): 346 nM
- IC50 (AMO-1): 138 nM
- IC50 (L-363): > 1000 nM

Structure (SMILES): CC(=O)N1CCc2c(c(N3CCCc4cc(-c5cnn(C)c5)c(C(F)F)cc43)nn2C2CCN(C(=O)CCCCCNc3cccc4c3C(=O)N(C3CCC(=O)NC3=O)C4=O)CC2)C1 (stereo not shown) [P-100, 4-((6-(4-(5-acetyl-3-(7-(difluoromethyl)-6-(1-methyl-1H-pyrazol-4-yl)-3,4-dihydroquinolin-1(2H)-yl)-4,5,6,7-tetrahydro-1H-pyrazolo[4,3-c]pyridin-1-yl)piperidin-1-yl)-6-oxohexyl)amino)-2-(2,6-dioxopiperidin-3-yl)isoindoline-1,3-dione]
- P300 protein levels in 22RV1 xenograft tumors (P300 [1]): significantly reducing
- P300 protein levels, dependence on interaction with cereblon (P300 [2]; LNCaP or 22RV1 cells, various concentrations (FIG. 7)): reduced P300 protein levels in a concentration-dependent manner
- inhibition at 0.01 µM (P300 [2]): > 80%
- CBP protein levels in 22RV1 xenograft tumors (CBP): significantly reducing
- IC50 (LNCaP cells; [3]): 0.9 nM
- degradation of P300/CBP in combination with pomalidomide, MG-132, Bortezomib or MLN4924 (P300/CBP): compromised; also recorded: neutralized

Structure (SMILES): CC(=O)N1CCc2c(c(N3CCCc4cc(-c5cnn(C)c5)c(C(F)F)cc43)nn2C2CCN(C(=O)CN3CCOC(CCNc4cccc5c4C(=O)N(C4CCC(=O)NC4=O)C5=O)C3)CC2)C1 (stereo not shown) [P-172, 4-((2-(4-(2-(4-(5-Acetyl-3-(7-(difluoromethyl)-6-(1-methyl-1H-pyrazol-4-yl)-3,4-dihydroquinolin-1(2H)-yl)-4,5,6,7-tetrahydro-1H-pyrazolo[4,3-c]pyridin-1-yl)piperidin-1-yl)-2-oxoethyl)morpholin-2-yl)ethyl)amino)-2-(2,6-dioxopiperidin-3-yl)isoindoline-1,3-dione]
- inhibition at 0.01 µM (P300 [2]): 20 to 50%
- IC50 (LNCaP cells; [3]): 56.9 nM
